We go through one molecule from BindingDB's records for doi:10.1016/j.bmc.2019.01.035 (Florida A&M University, 2019).

The target of the test is Sigma non-opioid intracellular receptor 1 (Homo sapiens, UniProt Q99720). Put plainly: Displacement [3H]-Pentazocine from sigma 1 receptor (unknown origin) expressed in HEK cell membranes.
Chain of Sigma non-opioid intracellular receptor 1 (Q99720 whole entry): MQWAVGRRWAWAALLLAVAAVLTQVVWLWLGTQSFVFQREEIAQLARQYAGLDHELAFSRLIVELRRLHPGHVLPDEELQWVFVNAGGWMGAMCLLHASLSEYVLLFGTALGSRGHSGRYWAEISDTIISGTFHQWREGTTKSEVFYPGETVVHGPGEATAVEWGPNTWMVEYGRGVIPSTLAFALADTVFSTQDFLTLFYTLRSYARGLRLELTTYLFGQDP

One may read the Ki as a measure of affinity in units of concentration, obtained from inhibition or displacement. Higher therefore signals a looser hold on the target. `O=C(CCCN1CCCN(c2ccccn2)CC1)c1ccc(F)cc1`: the Ki is 63 nM.
